Data from the supplement of paper PMC10307832.

Assays:
Assay in all cases: relative viability (nuclei count vs DMSO), 5 days (fraction); higher = more cells survive
Linsitinib + Phenformin = compound: C[C@]1(O)C[C@@H](c2nc(-c3ccc4ccc(-c5ccccc5)nc4c3)c3c(N)nccn32)C1 [Linsitinib] + N=C(N)NC(=N)NCCc1ccccc1 [Phenformin] (partner 250 µM)
Summary of the method: (§1)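 Relative viability is defined as nuclei in treated wells over nuclei in vehicle wells. Duplicate plates were run and medians reported. Lung cancer cell lines in 1536-well plates were dosed by pin tool one day after seeding, with one drug or with a fixed anchor-drug dose plus five library-drug doses (not always all listed) in √10 steps, and nuclei were counted after 5 days.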

Linsitinib + Vorinostat = compound: C[C@]1(O)C[C@@H](c2nc(-c3ccc4ccc(-c5ccccc5)nc4c3)c3c(N)nccn32)C1 [Linsitinib] + O=C(CCCCCCC(=O)Nc1ccccc1)NO [Vorinostat] (partner 1 µM)
Summary of the method: as §1

Ispinesib + Palbociclib = compound: Cc1ccc(C(=O)N(CCCN)[C@@H](c2nc3cc(Cl)ccc3c(=O)n2Cc2ccccc2)C(C)C)cc1 [Ispinesib] + CC(=O)c1c(C)c2cnc(Nc3ccc(N4CCNCC4)cn3)nc2n(C2CCCC2)c1=O [Palbociclib] (partner 0.5 µM)
Summary of the method: as §1

Ispinesib + Alpelisib = compound: Cc1ccc(C(=O)N(CCCN)[C@@H](c2nc3cc(Cl)ccc3c(=O)n2Cc2ccccc2)C(C)C)cc1 [Ispinesib] + Cc1nc(NC(=O)N2CCC[C@H]2C(N)=O)sc1-c1ccnc(C(C)(C)C(F)(F)F)c1 [Alpelisib] (partner 2 µM)
Summary of the method: as §1

Cell Line	relative viability (Linsitinib + Phenformin; first compound 0.01 µM)	relative viability (Linsitinib + Phenformin; first compound 0.03162 µM)	relative viability (Linsitinib + Phenformin; first compound 0.1 µM)	relative viability (Linsitinib + Phenformin; first compound 0.3162 µM)	relative viability (Linsitinib + Phenformin; first compound 1 µM)	relative viability (Linsitinib + Vorinostat; first compound 0.01 µM)	relative viability (Linsitinib + Vorinostat; first compound 0.03162 µM)	relative viability (Linsitinib + Vorinostat; first compound 0.1 µM)	relative viability (Linsitinib + Vorinostat; first compound 0.3162 µM)	relative viability (Linsitinib + Vorinostat; first compound 1 µM)	relative viability (Ispinesib + Palbociclib; first compound 0.001 µM)	relative viability (Ispinesib + Palbociclib; first compound 0.003162 µM)	relative viability (Ispinesib + Palbociclib; first compound 0.01 µM)	relative viability (Ispinesib + Palbociclib; first compound 0.03162 µM)	relative viability (Ispinesib + Palbociclib; first compound 0.1 µM)	relative viability (Ispinesib + Alpelisib; first compound 0.001 µM)	relative viability (Ispinesib + Alpelisib; first compound 0.003162 µM)	relative viability (Ispinesib + Alpelisib; first compound 0.01 µM)	relative viability (Ispinesib + Alpelisib; first compound 0.03162 µM)	relative viability (Ispinesib + Alpelisib; first compound 0.1 µM)
NCI-H1755	0.66	0.64	0.629	0.372	0.503	0.741	0.773	0.821	0.58	0.727	0.467	0.451	0.457	0.431	0.463	1.09	1.03	1.16	0.815	0.547
LOU-NH91	0.739	0.714	0.722	0.651	0.632	0.983	0.817	0.914	0.735	0.76	0.535	0.548	0.513	0.52	0.336	0.724	0.705	0.751	0.607	0.553
EMC-BAC-2	0.506	0.487	0.485	0.322	0.388	0.44	0.441	0.426	0.398	0.214	0.509	0.556	0.506	0.432	0.431	0.815	0.752	0.917	0.548	0.526
NCI-H2023	0.382	0.349	0.464	0.296	0.297	0.71	0.327	0.903	0.196	0.398	0.462	0.392	0.383	0.145	0.138	0.65	0.606	0.659	0.5	0.18
EKVX	0.278	0.21	0.235	0.216	0.224	0.753	0.785	0.798	0.481	0.496	0.456	–	0.409	0.463	0.295	0.978	0.879	0.923	0.944	0.273
NCI-H2085	0.763	0.723	0.727	0.663	0.574	0.778	0.707	0.791	0.8	0.681	0.384	0.411	0.481	0.469	0.402	0.997	1.04	1.04	1.02	0.688
NCI-H3122	0.378	0.352	0.309	–	0.335	0.966	0.921	0.98	–	0.702	0.221	0.216	0.216	0.202	0.157	0.783	0.86	0.778	0.897	0.223
HCC-827	0.423	0.433	0.418	–	0.385	0.207	0.829	0.799	–	0.639	0.496	0.49	0.58	0.543	0.477	0.91	1	0.981	0.922	0.814
HARA	0.427	0.469	0.435	–	0.4	0.51	0.513	0.648	0.347	0.351	0.299	0.262	0.284	0.256	0.225	0.865	0.806	0.914	0.674	0.371
NCI-H441	0.944	0.966	0.675	0.442	0.298	0.904	0.829	0.84	0.556	0.547	0.237	0.25	0.208	0.174	0.136	0.934	0.848	0.947	0.238	0.215
SK-MES-1	0.645	0.658	0.645	0.491	0.479	1.08	0.991	1.14	0.637	0.779	0.277	0.345	0.319	0.154	0.224	0.905	1.42	1.07	0.681	0.286
HCC-15	0.512	0.46	0.433	–	0.292	0.822	0.752	0.763	0.633	0.705	0.518	0.847	0.899	0.644	0.418	0.92	0.955	1.06	0.83	0.358
ABC-1	0.241	0.209	0.238	0.237	0.233	1.4	1.2	0.97	0.803	0.796	0.578	0.665	0.765	–	0.49	1.36	0.881	1.25	0.343	0.315
EPLC-272H	0.369	0.335	–	–	0.312	0.533	0.383	0.548	0.297	0.484	0.341	0.306	0.329	0.328	0.149	0.989	1.12	1.01	0.529	0.972
NCI-H2009	0.479	0.47	0.434	–	0.367	0.725	0.699	0.796	0.58	0.669	0.234	0.153	0.222	0.113	0.169	1.16	1.18	1.33	1.04	0.463
NCI-H661	0.291	0.221	0.268	0.293	0.255	0.76	0.829	0.75	0.699	0.825	0.398	0.4	0.406	0.282	0.248	0.593	0.972	0.745	0.369	0.508
NCI-H520	0.567	0.53	0.607	–	0.547	0.802	0.689	0.722	–	0.695	0.186	0.223	0.221	0.21	0.167	1.04	0.98	0.767	0.276	0.243
NCI-H2405	0.406	0.446	0.384	0.377	0.292	1.04	0.907	0.973	0.698	0.487	0.546	0.555	0.512	0.479	0.397	0.922	0.647	0.763	0.717	0.364
LCLC-97TM1	0.41	0.432	0.43	0.194	0.205	0.756	0.711	0.674	0.103	0.191	0.238	0.343	0.279	0.181	0.119	0.282	0.23	0.324	0.211	0.159
NCI-H727	0.562	0.489	0.483	0.503	0.422	0.978	1.4	1.08	0.82	0.927	0.565	0.66	–	0.678	0.617	–	0.565	0.545	0.486	0.404
NCI-H2228	0.307	0.397	0.325	0.273	0.278	0.593	0.409	0.664	0.465	0.476	1	1.05	1.08	0.544	0.386	0.632	0.582	1.14	0.522	0.325
LK-2	0.41	0.498	0.515	0.201	0.187	0.237	0.335	0.178	0.275	0.176	0.687	0.821	0.824	0.743	0.188	1.33	0.97	1.23	1.07	0.412
PC-3 [JPC-3]	0.464	0.48	0.515	0.436	0.45	0.78	0.784	0.843	0.492	0.571	0.533	0.55	0.548	0.553	0.395	0.992	1.09	1.07	1.06	1.11
NCI-H460	0.511	0.44	0.521	0.394	0.342	0.694	0.644	0.692	–	0.601	0.288	0.181	0.184	0.0542	0.0736	0.584	0.45	0.667	0.0767	0.0288
NCI-H647	0.524	0.464	0.537	–	0.438	0.57	0.583	0.458	0.368	0.646	0.393	0.327	0.518	0.208	0.0953	1.38	1.26	1.66	0.192	0.14
NCI-H838	0.528	0.487	0.462	–	0.395	0.704	0.645	0.652	0.517	0.545	0.23	0.23	0.262	0.212	0.137	1.17	1.06	1.1	1.04	0.426
PC-14	0.623	0.523	0.58	0.533	0.395	0.668	0.566	0.808	0.517	0.52	0.493	0.439	0.134	0.0579	0.152	1.01	1.05	1.05	0.942	0.174
